Reference: patent US20180042925A1, “METHODS FOR TREATING CANCER” (CHILDREN'S HOSPITAL MEDICAL CENTER, priority 2015, published 2018)

What was measured:
G68 cells = assay: CellTiter Glo cell viability assay, pharmacological SCD1 inhibition; type: cell-based, human; conditions: vs vehicle (DMSO), FIG. 2C
G62 cells = assay: as above; type: cell-based, human; conditions: vs vehicle (DMSO), FIG. 2B
Protocol: For the pharmacological inhibition studies of FIGS. 2B and 2C, an equal number of G62 cells was seeded in 96 wells in the presence of SCD1 inhibitor or vehicle (DMSO) in quadruplicate. Viable cells were quantified at indicated times using CellTiter Glo cell viability assay kit (Promega).

SMILES: Cc1nnc(-c2ccc(N3CCC(Oc4cc(F)ccc4Cl)CC3)nn2)o1 [CAY10566, 3-[4-(2-chloro-5-fluorophenoxy)-1-piperidinyl]-6-(5-methyl-1,3,4-oxadiazol-2-yl)-pyridazine]
- cell viability in the presence or absence of CAY10566 (G68 cells): induction of G68 cell death and growth inhibition
- cell viability in the presence or absence of CAY10566 (G62 cells): induction of G62 cell death and growth inhibition
